As usually defined, the melting point is the temperature, or range, at which the solid turns liquid. For orientation: IC50 means the concentration at which inhibition is half-maximal.

Data set [1] relates to PC-3 (human prostate adenocarcinoma, metastatic). Kind of data set: MTT colorimetric cytotoxicity assay, PC-3. The format is cell-based. The settings on record: Homo sapiens; MTT, 24 h incubation, mean ± standard error. On the procedure: (§1) Three human cancer cell lines, PC-3 (human prostate adenocarcinoma, metastatic), […], were used to test the anti-proliferative activity of β-enaminonitrile (4a–p) using the MTT colorimetric assay at concentrations ranging from 0–100 μM. The representative active cytotoxic substances 4a, 4c, 4d, 4e, 4g, 4i, 4k and 4o were also tested against two normal cell lines, human fetal lung (HFL-1) and human diploid fibroblasts (WI-38), as well as Adriamycin (ADR)-resistant human breast cancer cells (MCF-7/ADR). The reference cytotoxic agents, Vinblastine and Doxorubicin, were used in the tests.
(§2) The tumor cell lines MCF-7, HepG-2, PC-3 MCF-7/ADR, HFL-1 and (WI-38) were obtained from the American Type Culture Collection (ATCC, Rockville, MD, USA). The cells were grown on RPMI-1640 medium supplemented with 10% inactivated fetal calf serum and 50 µg/mL gentamycin. The cells were maintained at 37 ^οC in a humidified atmosphere with 5% CO2 and were subcultured two to three times a week.
(§3) The cytotoxic activity was appraised using the 3-(4,5-dimethylthiazol-2-yl)-2,5-diphenyltetrazolium bromide (MTT) colorimetric assay for the antitumor cell lines, as reported previously, and the ELISA assay for MCF-7/ADR [69].
For orientation: Tetrazolium dyes change colour on reduction, which living cells bring about.

In data set [2] the test system is SKOV-3 (ovarian cancer cell line). Kind of data set: MTT colorimetric cytotoxicity assay, SKOV-3. The class given is cell-based, human. The settings on record: Homo sapiens, SK-OV-3, 24 h, 24 h incubation, mean ± standard error. On the procedure:
as §1, §3

Data set [3] deals with HeLa (cervical cancer cell line). Briefly: MTT colorimetric cytotoxicity assay, HeLa. The class given is cell-based, human. Conditions: 24 h incubation, mean ± standard error. On the procedure: as §1, §3
Data set [4] deals with human diploid fibroblasts (WI-38). Kind of data set: Cytotoxicity against normal cell line WI-38. Conditions: Homo sapiens, WI-38, 24 h, 24 h incubation, mean ± standard error. The class given is cell-based. The procedure:
as §1, §2, §3

Data set [5] has as its system Adriamycin (ADR)-resistant human breast cancer cells (MCF-7/ADR). Kind of data set: Cytotoxicity against MCF-7/ADR cells. The format is cell-based. The settings on record: 24 h exposure, mean ± standard error. The procedure:
as §1, §2, §3

The subject of another data set is human fetal lung (HFL-1). Briefly: Cytotoxicity against normal cell line HFL-1. The class given is cell-based. Conditions: Homo sapiens, HFL1, 24 h, 24 h incubation, mean ± standard error. The procedure: as §1, §2, §3
A further data set deals with MCF-7/ADR cells. Briefly: Annexin V/PI double staining flow cytometric apoptosis test. The settings on record: IC50 value, 24 h. The class given is cell-based, human. The text has this:
One of the optional mechanisms regarding the lethal action of chemotherapeutic medicines is blocking cell cycle progression, triggering apoptosis with otherwise mutual effect. […] The pivotal relation of the newly synthesized MCF-7/ADR “anticancer drugs” was further evaluated using the Annexin V/PI double staining flow cytometric test. […] In comparison to Doxorubicin’s 30% total apoptosis rate, which was nearly identical to 4a, 4c and 4g, compounds 4d, 4e and 4i were leading with percentages of 41%, 31% and 38%, respectively. Only compounds 4a (8.5%) and 4g (11%) had greater effects on necrosis compared to doxorubicin (5%). Other examined substances caused both early and late apoptosis in all treated cells (Figure 7b). Therefore, MCF-7/ADR cytotoxicity is induced by apoptotic processes, apparently without negative effects on P-gp.
(a) The dot plot of the Annexin V/PI-stained cells, treated with the indicated drugs. […] The data are expressed as the mean ± SD of three independent experiments in triplicate. Significances are shown in comparison to control cells (* p < 0.001). TEXT PRINTED IN THE PICTURE: (a) DOX.: 3.33%; 18.41%; 7.85% | (a) 4a: 8.66%; 18.17%; 4.24% | (a) 4c: 2.74%; 12.73%; 9.11% | (a) 4d: 4.85%; 27.44%; 8.73% | (a) 4e: 5.77%; 9.92%; 15.92% | (a) 4g: 11.04%; 3.94%; 7.38% | (a) 4i: 5.54%; 12.87%; 19.61% DOUBTS OF THE COPYIST ABOUT THIS PICTURE: The quadrant percentages in panel (a) are printed very small and blurred, so 3, 5, 6, 8 and 9 cannot be told apart with certainty. […] They are told apart only by their quadrant in the PI / Annexin V-FITC plot, and are listed upper left, upper right, lower right. / The sample line in each plot reads MCF7/ADR. In the 4g plot it is cut off as 'MCF7/AI'. / The panel 'Cont.' (untreated control: 1.56%, 0.15%, 0.48%) is left out because it is not a substance.

For a further data set, the system named is P-glycoprotein (P-gp). Kind of data set: P-gp content in MCF-7/ADR cell lysate (human P-gp ELISA kit). The class given is cell-based. The settings on record: human, MCF-7/ADR cells (cell lysate); MCF-7/ADR cell lysate, 48 h, ELISA. On the procedure: P-glycoprotein (P-gp)-mediated multidrug resistance (MDR) is a phenomenon in which cells become resistant to structurally and mechanistically unrelated drugs, resulting in low intracellular drug concentrations. It is one of the noteworthy problems in malignant tumor clinical therapeutics.
The content of P-gp in the MCF-7/ADR cell lysates after incubation with varying conc. (12.5–100 µM) of tested compounds 4a, 4c, 4d, 4e, 4g and 4i following exposure for 48 hr was determined using a commercial human P-gp (Permeability Glycoprotein) ELISA Kit (MBS2506188, MyBioSource Inc., San Diego, CA, USA). Absorption was recorded at 450 nm with a Spectramax Gemini fluorescence microplate reader (Molecular Devices, Sunnyvale, CA, USA).

Setting [6] is: Homo sapiens, NCI/ADR-RES, 24 h.

`N#CC1=C(N)Oc2ccc3ccc(O)cc3c2C1c1c(F)cccc1F` (stereo not shown) [4b, 3-Amino-1-(2,6-Difluorophenyl)-9-Hydroxy-1H-Benzo[f]chromene-2-Carbonitrile] displayed a melting point of 193 to 194 °C. For the same compound, the IC50 in data set [1] was 9.4 ± 0.5 µM. The same compound yielded an IC50 in data set [2] of 2 ± 0.2 µM. In addition, the IC50 in data set [3] (Homo sapiens, HeLa, 24 h) was 6.7 ± 0.2 µM.
On the same counts, the results for `N#CC1=C(N)Oc2ccc3ccc(O)cc3c2C1c1c(Cl)cccc1Cl` (stereo not shown) [4f, 3-Amino-1-(2,6-Dichlorophenyl)-9-Hydroxy-1H-Benzo[f]chromene-2-Carbonitrile] are 196 to 197 °C, 26.6 ± 3.1 µM, 7 ± 0.4 µM and 4.1 ± 0.3 µM.
The compound `N#CC1=C(N)Oc2ccc3ccc(O)cc3c2C1c1c(F)cccc1Cl` (stereo not shown) [4h, 3-Amino-1-(2-Chloro-6-Flourophenyl)-9-Hydroxy-1H-Benzo[f]chromene-2-Carbonitrile] showed a melting point of 298 to 299 °C. In [1], this compound registered an IC50 of 11.6 ± 0.8 µM. Further, in data set [2], half-maximal inhibition (IC50) required 3.1 ± 0.2 µM. Further, the IC50 in data set [3] (Homo sapiens, HeLa, 24 h) was determined as 4.7 ± 0.5 µM.
Regarding `COc1cccc(C2C(C#N)=C(N)Oc3ccc4ccc(O)cc4c32)c1O` (stereo not shown) [4j, 3-Amino-1-(2-Hydroxy-3-Methoxyphenyl)-9-Hydroxy-1H-Benzo[f]chromene-2-Carbonitrile], the melting point was 269 to 270 °C. Besides, in [1], the IC50 was 33.5 ± 3.5 µM. The half-inhibitory concentration (IC50) in [2] was 97.4 ± 0.8 µM. The compound also showed an IC50 in [3] (Homo sapiens, HeLa, 24 h) of 50.4 ± 1.3 µM.
Compound `COc1ccc(C2C(C#N)=C(N)Oc3ccc4ccc(O)cc4c32)c(OC)c1` (stereo not shown) [4k, 3-Amino-1-(2,4-Dimethoxyphenyl)-9-Hydroxy-1H-Benzo[f]chromene-2-Carbonitrile] yielded a melting point of 242 to 243 °C. The compound further showed a half-inhibitory concentration (IC50) in data set [4] of 25.3 ± 1.3 µM. Half-maximal inhibition in data set [1] (IC50) was put at 3.7 ± 0.3 µM. Further, the midpoint of inhibition in data set [5] (setting [6]), the IC50, lay at 36.8 ± 0.2 µM. Half-maximal inhibition with human fetal lung (HFL-1) (IC50) was put at 24.2 ± 0.1 µM. Moreover, the IC50 in data set [2] came to 1.7 ± 0.3 µM. Inhibition in [3] was half-maximal at 6.7 ± 0.1 µM (IC50).
The compound `COc1ccc(C2C(C#N)=C(N)Oc3ccc4ccc(O)cc4c32)cc1OC` (stereo not shown) [4l, 3-Amino-1-(3,4-Dimethoxyphenyl)-9-Hydroxy-1H-Benzo[f]chromene-2-Carbonitrile] returned a melting point of 268 to 269 °C. In [1], the IC50 turned out to be 4.1 ± 0.9 µM. The compound also displayed an IC50 in data set [2] of 4 ± 1.3 µM. It took 5.3 ± 0.2 µM to reach half-maximal inhibition in [3] (Homo sapiens, HeLa, 24 h) (IC50).
The matching figures for `COc1ccc(C2C(C#N)=C(N)Oc3ccc4ccc(O)cc4c32)c(OC)c1OC` (stereo not shown) [4m, 3-Amino-1-(2,3,4-Trimethoxyphenyl)-9-Hydroxy-1H-Benzo[f]chromene-2-Carbonitrile]: 265 to 266 °C, 6.5 ± 1.3 µM, 3.4 ± 0.5 µM and 8.8 ± 0.5 µM.
On the same counts, the results for `COc1cc(OC)c(C2C(C#N)=C(N)Oc3ccc4ccc(O)cc4c32)cc1OC` (stereo not shown) [4n, 3-Amino-1-(2,4,5-Trimethoxyphenyl)-9-Hydroxy-1H-Benzo[f]chromene-2-Carbonitrile] are 235 to 236 °C, 7.6 ± 1.2 µM, 2.4 ± 0.4 µM and 4.9 ± 0.5 µM.
As to `COc1cc(C2C(C#N)=C(N)Oc3ccc4ccc(O)cc4c32)cc(OC)c1OC` (stereo not shown) [4o, 3-Amino-1-(3,4,5-Trimethoxyphenyl)-9-Hydroxy-1H-Benzo[f]chromene-2-Carbonitrile], the melting point fell in the range of 252 to 253 °C. In [4], this compound had an IC50 of 20.4 ± 0.3 µM. In addition, in [1], the IC50 was 2.1 ± 0.8 µM. This compound gave an IC50 in data set [5] of 23.7 ± 0.4 µM. Further, the IC50 in the data set with human fetal lung (HFL-1) is 22.2 ± 0.4 µM. The compound also showed an IC50 in data set [2] of 3.1 ± 0.1 µM. This compound displayed an IC50 in data set [3] (Homo sapiens, HeLa, 24 h) of 5.7 ± 1.8 µM.
`N#CC1=C(N)Oc2ccc3ccc(O)cc3c2C1c1c(F)c(F)c(F)c(F)c1F` (stereo not shown) [4p, 3-Amino-9-Hydroxy-1-(Perfluorophenyl)-1H-Benzo[f]chromene-2-Carbonitrile]: the melting point was 299 to 300 °C. The same compound had an IC50 in data set [1] of 4.5 ± 1.2 µM. This compound also displayed an IC50 in data set [2] of 4.2 ± 0.3 µM. In data set [3] (Homo sapiens, HeLa, 24 h), this compound came in with an IC50 of 3.9 ± 0.4 µM.
Compound `COc1cccc2c1C(=O)c1c(O)c3c(c(O)c1C2=O)C[C@@](O)(C(=O)CO)C[C@@H]3O[C@H]1C[C@H](N)[C@H](O)[C@H](C)O1` [Doxorubicin, reference compound] showed a necrosis with MCF-7/ADR cells of 5%. Also, the IC50 turned out to be 1.3 ± 0.3 µM in data set [1]; 18.6 ± 0.2 µM in data set [5] (setting [6]); 1.1 ± 0.2 µM in data set [2]; 1.5 ± 0.3 µM in [3] (Homo sapiens, HeLa, 24 h). Also, the IC50 at 48 h with P-glycoprotein (P-gp) stood at 50.9 µM.
As to `CC[C@]1(O)C[C@@H]2CN(CCc3c([nH]c4ccccc34)[C@@](C(=O)OC)(c3cc4c(cc3OC)N(C)[C@H]3[C@@](O)(C(=O)OC)[C@H](OC(C)=O)[C@]5(CC)C=CCN6CC[C@]43[C@@H]65)C2)C1` [Vinblastine, reference compound], the IC50 worked out at 7.5 ± 1.3 µM in data set [1]; 3.2 ± 1.2 µM in data set [2]; 5.7 ± 1.1 µM in data set [3] (Homo sapiens, HeLa, 24 h).

These data come from article PMC9820082, “Synthesis of 9-Hydroxy-1H-Benzo[f]chromene Derivatives with Effective Cytotoxic Activity on MCF7/ADR, P-Glycoprotein Inhibitors, Cell Cycle Arrest and Apoptosis Effects” (International Journal of Molecular Sciences, 2022).
